# Source: PubChem BioAssay AID2060900 (Molecular Pharmacology Branch, DTP, NCI, 2025)
# Tested on: 521955-158-R2-J5-PDC complex spheroids, viability
# Experiment: Anticancer human tumor 521955-158-R2-J5-PDC patient-derived pancreatic carcinoma cell line growth inhibition [RAS]
# Details: for IC50: curve of first compound; for viability, T/C: stronger effect = lower value
# Outline: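 Agents were tested in combination matrices in half-log decrements from a top concentration at or near clinical Cmax (10 microM if undetermined). Targets were multi-cell spheroids of tumour lines plus HUVEC and MSC stromal cells.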
# 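Further: compound exposure lasted seven days before the viability read.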
# 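Wherever viability, T/C is given: spheroids also contain HUVEC endothelial cells and mesenchymal stem cells as stroma.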
compound,measurement,setting,value
CC1(C)CCC(Nc2ncc(C(F)(F)F)c(-c3c[nH]c4c(P(C)(C)=O)c(C#N)ccc34)n2)CN1 (stereo unspecified) + CCn1c(-c2cc(N3CCN(C)CC3)cnc2C(C)OC)c2c3cc(ccc31)-c1csc(n1)CC(NC(=O)C1CC1C)C(=O)N1CCCC(N1)C(=O)OCC(C)(C)C2,IC50,second compound 0.000949 µM,< 0.000949 µM
same,IC50,second compound 0.003 µM,< 0.000949 µM
same,IC50,second compound 0.00949 µM,< 0.000949 µM
same,IC50,second compound 0.03 µM,< 0.000949 µM
same,IC50,second compound 0.0949 µM,< 0.000949 µM
same,IC50,second compound 0.3 µM,< 0.000949 µM
same,"viability, T/C","second compound 0.000949 µM, first compound 0.000949 µM",33.7%
same,"viability, T/C","second compound 0.000949 µM, first compound 0.003 µM",32%
same,"viability, T/C","second compound 0.000949 µM, first compound 0.00949 µM",33.4%
same,"viability, T/C","second compound 0.000949 µM, first compound 0.03 µM",30.9%
same,"viability, T/C","second compound 0.000949 µM, first compound 0.0949 µM",39.5%
same,"viability, T/C","second compound 0.000949 µM, first compound 0.3 µM",40.5%
same,"viability, T/C","second compound 0.003 µM, first compound 0.000949 µM",34.6%
same,"viability, T/C","second compound 0.003 µM, first compound 0.003 µM",26.5%
same,"viability, T/C","second compound 0.003 µM, first compound 0.00949 µM",18%
same,"viability, T/C","second compound 0.003 µM, first compound 0.03 µM",23.1%
same,"viability, T/C","second compound 0.003 µM, first compound 0.0949 µM",23.4%
same,"viability, T/C","second compound 0.003 µM, first compound 0.3 µM",31.7%
same,"viability, T/C","second compound 0.00949 µM, first compound 0.000949 µM",24.2%
same,"viability, T/C","second compound 0.00949 µM, first compound 0.003 µM",23.6%
same,"viability, T/C","second compound 0.00949 µM, first compound 0.00949 µM",20.4%
same,"viability, T/C","second compound 0.00949 µM, first compound 0.03 µM",16.6%
same,"viability, T/C","second compound 0.00949 µM, first compound 0.0949 µM",15.1%
same,"viability, T/C","second compound 0.00949 µM, first compound 0.3 µM",19.4%
same,"viability, T/C","second compound 0.03 µM, first compound 0.000949 µM",12.3%
same,"viability, T/C","second compound 0.03 µM, first compound 0.003 µM",17.6%
same,"viability, T/C","second compound 0.03 µM, first compound 0.00949 µM",9.79%
same,"viability, T/C","second compound 0.03 µM, first compound 0.03 µM",7.37%
same,"viability, T/C","second compound 0.03 µM, first compound 0.0949 µM",8.43%
same,"viability, T/C","second compound 0.03 µM, first compound 0.3 µM",7.63%
same,"viability, T/C","second compound 0.0949 µM, first compound 0.000949 µM",8.04%
same,"viability, T/C","second compound 0.0949 µM, first compound 0.003 µM",7.4%
same,"viability, T/C","second compound 0.0949 µM, first compound 0.00949 µM",8.22%
same,"viability, T/C","second compound 0.0949 µM, first compound 0.03 µM",5.8%
same,"viability, T/C","second compound 0.0949 µM, first compound 0.0949 µM",4.67%
same,"viability, T/C","second compound 0.0949 µM, first compound 0.3 µM",4.29%
same,"viability, T/C","second compound 0.3 µM, first compound 0.000949 µM",8.35%
same,"viability, T/C","second compound 0.3 µM, first compound 0.003 µM",7.65%
same,"viability, T/C","second compound 0.3 µM, first compound 0.00949 µM",4.3%
same,"viability, T/C","second compound 0.3 µM, first compound 0.03 µM",4.81%
same,"viability, T/C","second compound 0.3 µM, first compound 0.0949 µM",3.91%
same,"viability, T/C","second compound 0.3 µM, first compound 0.3 µM",5.79%
CC(=O)OC12COC1CC(O)C1(C)C(=O)C(O)C3=C(C)C(OC(=O)C(O)C(NC(=O)OC(C)(C)C)c4ccccc4)CC(O)(C(OC(=O)c4ccccc4)C21)C3(C)C (stereo unspecified) + CCn1c(-c2cccnc2C(C)OC)c2c3cc(ccc31)N1CCOC(CC(NC(=O)C(C(C)C)N(C)C(=O)C3(F)CCN(C(=O)C#CC(C)(C)N(C)C)CC3)C(=O)N3CCCC(N3)C(=O)OCC(C)(C)C2)C1,IC50,second compound 0.000949 µM,< 0.0316 µM
same,IC50,second compound 0.003 µM,< 0.0316 µM
same,IC50,second compound 0.00949 µM,< 0.0316 µM
same,IC50,second compound 0.03 µM,< 0.0316 µM
same,IC50,second compound 0.0949 µM,< 0.0316 µM
same,IC50,second compound 0.3 µM,< 0.0316 µM
same,"viability, T/C","second compound 0.000949 µM, first compound 0.0316 µM",47.5%
same,"viability, T/C","second compound 0.000949 µM, first compound 0.1 µM",23%
same,"viability, T/C","second compound 0.000949 µM, first compound 0.316 µM",24.6%
same,"viability, T/C","second compound 0.000949 µM, first compound 1 µM",22%
same,"viability, T/C","second compound 0.000949 µM, first compound 3.16 µM",28%
same,"viability, T/C","second compound 0.000949 µM, first compound 10 µM",40.4%
same,"viability, T/C","second compound 0.003 µM, first compound 0.0316 µM",31.7%
same,"viability, T/C","second compound 0.003 µM, first compound 0.1 µM",25.1%
same,"viability, T/C","second compound 0.003 µM, first compound 0.316 µM",27.6%
same,"viability, T/C","second compound 0.003 µM, first compound 1 µM",23.8%
same,"viability, T/C","second compound 0.003 µM, first compound 3.16 µM",28.9%
same,"viability, T/C","second compound 0.003 µM, first compound 10 µM",42.2%
same,"viability, T/C","second compound 0.00949 µM, first compound 0.0316 µM",33.5%
same,"viability, T/C","second compound 0.00949 µM, first compound 0.1 µM",24.6%
same,"viability, T/C","second compound 0.00949 µM, first compound 0.316 µM",23.6%
same,"viability, T/C","second compound 0.00949 µM, first compound 1 µM",25.8%
same,"viability, T/C","second compound 0.00949 µM, first compound 3.16 µM",40%
same,"viability, T/C","second compound 0.00949 µM, first compound 10 µM",38.1%
same,"viability, T/C","second compound 0.03 µM, first compound 0.0316 µM",35.7%
same,"viability, T/C","second compound 0.03 µM, first compound 0.1 µM",20.3%
same,"viability, T/C","second compound 0.03 µM, first compound 0.316 µM",22.8%
same,"viability, T/C","second compound 0.03 µM, first compound 1 µM",22.9%
same,"viability, T/C","second compound 0.03 µM, first compound 3.16 µM",32.3%
same,"viability, T/C","second compound 0.03 µM, first compound 10 µM",41.6%
same,"viability, T/C","second compound 0.0949 µM, first compound 0.0316 µM",39.1%
same,"viability, T/C","second compound 0.0949 µM, first compound 0.1 µM",26.8%
same,"viability, T/C","second compound 0.0949 µM, first compound 0.316 µM",19.3%
same,"viability, T/C","second compound 0.0949 µM, first compound 1 µM",25.5%
same,"viability, T/C","second compound 0.0949 µM, first compound 3.16 µM",38.2%
same,"viability, T/C","second compound 0.0949 µM, first compound 10 µM",41.1%
same,"viability, T/C","second compound 0.3 µM, first compound 0.0316 µM",32.7%
same,"viability, T/C","second compound 0.3 µM, first compound 0.1 µM",22.7%
same,"viability, T/C","second compound 0.3 µM, first compound 0.316 µM",23.4%
same,"viability, T/C","second compound 0.3 µM, first compound 1 µM",32.3%
same,"viability, T/C","second compound 0.3 µM, first compound 3.16 µM",41.9%
same,"viability, T/C","second compound 0.3 µM, first compound 10 µM",39.9%
Cc1nc(N2CCC3(CC2)COC(C)C3N)c(CO)nc1Sc1ccnc(N)c1Cl (stereo unspecified) + C=CC(=O)N1CCN(c2nc(OCC3CCCN3C)nc3c(F)c(-c4nc(N)cc(C)c4C(F)(F)F)c(Cl)cc23)C(C)C1,IC50,second compound 0.00316 µM,> 10 µM
same,IC50,second compound 0.01 µM,> 10 µM
same,IC50,second compound 0.0316 µM,> 10 µM
same,IC50,second compound 0.1 µM,> 10 µM
same,IC50,second compound 0.316 µM,> 10 µM
same,IC50,second compound 1 µM,> 10 µM
same,"viability, T/C","second compound 0.00316 µM, first compound 0.0316 µM",88.7%
same,"viability, T/C","second compound 0.00316 µM, first compound 0.1 µM",77.2%
same,"viability, T/C","second compound 0.00316 µM, first compound 0.316 µM",69.8%
same,"viability, T/C","second compound 0.00316 µM, first compound 1 µM",70.5%
same,"viability, T/C","second compound 0.00316 µM, first compound 3.16 µM",60.1%
same,"viability, T/C","second compound 0.00316 µM, first compound 10 µM",56.8%
same,"viability, T/C","second compound 0.01 µM, first compound 0.0316 µM",81.2%
same,"viability, T/C","second compound 0.01 µM, first compound 0.1 µM",79%
same,"viability, T/C","second compound 0.01 µM, first compound 0.316 µM",64.6%
same,"viability, T/C","second compound 0.01 µM, first compound 1 µM",64.2%
same,"viability, T/C","second compound 0.01 µM, first compound 3.16 µM",60.3%
same,"viability, T/C","second compound 0.01 µM, first compound 10 µM",63.3%
same,"viability, T/C","second compound 0.0316 µM, first compound 0.0316 µM",73.8%
same,"viability, T/C","second compound 0.0316 µM, first compound 0.1 µM",90.9%
same,"viability, T/C","second compound 0.0316 µM, first compound 0.316 µM",72.1%
same,"viability, T/C","second compound 0.0316 µM, first compound 1 µM",71.6%
same,"viability, T/C","second compound 0.0316 µM, first compound 3.16 µM",60.7%
same,"viability, T/C","second compound 0.0316 µM, first compound 10 µM",56.9%
same,"viability, T/C","second compound 0.1 µM, first compound 0.0316 µM",101%
same,"viability, T/C","second compound 0.1 µM, first compound 0.1 µM",78.5%
same,"viability, T/C","second compound 0.1 µM, first compound 0.316 µM",70.5%
same,"viability, T/C","second compound 0.1 µM, first compound 1 µM",63.2%
same,"viability, T/C","second compound 0.1 µM, first compound 3.16 µM",63%
same,"viability, T/C","second compound 0.1 µM, first compound 10 µM",54.1%
same,"viability, T/C","second compound 0.316 µM, first compound 0.0316 µM",100%
same,"viability, T/C","second compound 0.316 µM, first compound 0.1 µM",80.3%
same,"viability, T/C","second compound 0.316 µM, first compound 0.316 µM",61%
same,"viability, T/C","second compound 0.316 µM, first compound 1 µM",61.3%
same,"viability, T/C","second compound 0.316 µM, first compound 3.16 µM",64.8%
same,"viability, T/C","second compound 0.316 µM, first compound 10 µM",56%
same,"viability, T/C","second compound 1 µM, first compound 0.0316 µM",106%
same,"viability, T/C","second compound 1 µM, first compound 0.1 µM",70.1%
same,"viability, T/C","second compound 1 µM, first compound 0.316 µM",66.5%
same,"viability, T/C","second compound 1 µM, first compound 1 µM",62.6%
same,"viability, T/C","second compound 1 µM, first compound 3.16 µM",55.3%
same,"viability, T/C","second compound 1 µM, first compound 10 µM",48.3%
